# Data from ChEMBL document CHEMBL4715696, “In vitro synergistic anticancer activity of the combination of T-type calcium channel blocker and chemotherapeutic agent in A549 cells” (Bioorg Med Chem Lett, 2016).
# Legend:
# A549 [1] = test: Decrease in cell cycle associated protein expression in human A549 cells assessed as fold change in cyclin D1 expression at 10 uM after 6 hrs by Western blot analysis (reference value: 0.68); format: functional
# A549 [2] = test: Decrease in cell cycle associated protein expression in human A549 cells assessed as fold change in CDK6 expression at 10 uM after 24 hrs by Western blot analysis (reference value: 0.7); format: functional
# A549 [3] = test: Decrease in cell cycle associated protein expression in human A549 cells assessed as fold change in CDK4 expression at 10 uM after 12 hrs by Western blot analysis (reference value: 0.87); format: functional
# A549 [4] = test: Decrease in cell cycle associated protein expression in human A549 cells assessed as fold change in cyclin D1 expression at 2.5 uM after 48 hrs by Western blot analysis (reference value: 0.39); format: functional
# A549 [5] = test: Potentiation of etoposide-induced cell cycle arrest in human A549 cells assessed as accumulation at sub G1 phase at 5 uM in presence of etoposide after 48 hrs by flow cytometric analysis (Rvb =33 %); format: functional
# A549 [6] = test: Induction of cell cycle arrest in human A549 cells assessed as decrease in cell accumulation at G2/M phase after 48 hrs by flow cytometric analysis; format: functional, cell-based; settings: dose 2.5-10 µM
# A549 [7] = test: Decrease in cell cycle associated protein expression in human A549 cells assessed as fold change in cyclin E expression at 2.5 uM after 48 hrs by Western blot analysis (reference value: 0.37); format: functional
# [8] = Protein binding in rat plasma at 10 uM after 4 hrs; format: ADME, cell-free; settings: read-out: PPB (converted)
# [9] = Metabolic stability in human liver microsomes assessed as parent compound remaining at 1 uM measured for 30 mins; format: ADME, Microsome; settings: read-out: Stabilty
# CYP2D6 = CYP2D6 (Homo sapiens, UniProt P10635); test: Inhibition of human CYP2D6 assessed as residual activity at 10 uM measured after 15 mins relative to control; format: ADME; settings: read-out: Activity
# CYP2D6, sequence (P10635 whole entry): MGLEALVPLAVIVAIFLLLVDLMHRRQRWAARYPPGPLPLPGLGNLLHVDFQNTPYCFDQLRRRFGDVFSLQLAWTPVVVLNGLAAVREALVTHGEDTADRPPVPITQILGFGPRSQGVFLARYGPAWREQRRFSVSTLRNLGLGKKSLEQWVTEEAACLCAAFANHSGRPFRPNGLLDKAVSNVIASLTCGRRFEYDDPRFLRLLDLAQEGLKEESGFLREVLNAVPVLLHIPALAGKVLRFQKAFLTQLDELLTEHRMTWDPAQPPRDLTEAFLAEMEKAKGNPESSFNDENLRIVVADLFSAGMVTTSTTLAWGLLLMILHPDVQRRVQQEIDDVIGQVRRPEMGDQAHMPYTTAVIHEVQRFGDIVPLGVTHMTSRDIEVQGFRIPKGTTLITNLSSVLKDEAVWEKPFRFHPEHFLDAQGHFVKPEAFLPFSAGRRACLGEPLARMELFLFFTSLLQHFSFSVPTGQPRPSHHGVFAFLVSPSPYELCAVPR
# A549 [10] = test: Decrease in cell cycle associated protein expression in human A549 cells assessed as fold change in cyclin D2 expression at 10 uM after 48 hrs by Western blot analysis (reference value: 0.46 to 0.77); format: functional
# A549 [11] = test: Potentiation of cisplatin-induced cell cycle arrest in human A549 cells assessed as accumulation at S phase at 10 uM in presence of cisplatin after 48 hrs by flow cytometric analysis (Rvb =15.8%); format: functional
# A549 [12] = test: Decrease in cell cycle associated protein expression in human A549 cells assessed as fold change in CDK2 expression at 10 uM after 6 hrs by Western blot analysis (reference value: 0.79); format: functional
# A549 [13] = test: Potentiation of cisplatin-induced cell cycle arrest in human A549 cells assessed as accumulation at G1 phase at 10 uM in presence of cisplatin after 48 hrs by flow cytometric analysis (reference value: 14.4%); format: functional
# [14] = Metabolic stability in mouse liver microsomes assessed as parent compound remaining at 1 uM measured for 30 mins; format: ADME, Microsome; settings: read-out: Stabilty
# A549 [15] = test: Induction of cell cycle arrest in human A549 cells assessed as accumulation at G2/M phase at 10 uM after 48 hrs by flow cytometric analysis (reference value: 22.1%); format: functional
# A549 [16] = test: Potentiation of cisplatin-induced cell cycle arrest in human A549 cells assessed as accumulation at G2/M phase at 2.5 uM in presence of cisplatin after 48 hrs by flow cytometric analysis (Rvb =52.9%); format: functional
# A549 [17] = test: Decrease in cell cycle associated protein expression in human A549 cells assessed as fold change in CDK6 expression at 10 uM after 6 hrs by Western blot analysis (reference value: 0.7); format: functional
# CYP2C19 = CYP2C19 (Homo sapiens, UniProt P33261); test: Inhibition of human CYP2C19 assessed as residual activity at 10 uM measured after 15 mins relative to control; format: ADME; settings: read-out: Activity
# CYP2C19, sequence (P33261 whole entry): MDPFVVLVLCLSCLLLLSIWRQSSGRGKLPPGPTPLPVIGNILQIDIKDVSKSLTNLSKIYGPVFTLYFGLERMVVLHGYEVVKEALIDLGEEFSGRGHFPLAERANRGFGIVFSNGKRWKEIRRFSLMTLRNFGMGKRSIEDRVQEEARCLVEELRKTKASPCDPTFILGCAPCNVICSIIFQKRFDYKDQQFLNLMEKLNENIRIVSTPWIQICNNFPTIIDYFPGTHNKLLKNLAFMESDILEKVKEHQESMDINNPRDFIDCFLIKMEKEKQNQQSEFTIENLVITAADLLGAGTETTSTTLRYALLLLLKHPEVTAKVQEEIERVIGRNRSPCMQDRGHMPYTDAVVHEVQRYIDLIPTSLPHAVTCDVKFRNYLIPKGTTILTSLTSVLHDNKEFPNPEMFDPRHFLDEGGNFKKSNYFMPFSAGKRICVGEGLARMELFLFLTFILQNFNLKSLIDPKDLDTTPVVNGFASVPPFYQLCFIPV
# A549 [18] = test: Decrease in cell cycle associated protein expression in human A549 cells assessed as reduction in CDK6 expression after 48 hrs by Western blot analysis; format: functional, cell-based; settings: dose 2.5-10 µM
# A549 [19] = test: Decrease in cell cycle associated protein expression in human A549 cells assessed as fold change in cyclin D3 expression at 10 uM after 48 hrs by Western blot analysis (reference value: 0.73 to 1.09); format: functional
# A549 [20] = test: Potentiation of cisplatin-induced cell cycle arrest in human A549 cells assessed as accumulation at G1 phase at 2.5 uM in presence of cisplatin after 48 hrs by flow cytometric analysis (reference value: 14.4%); format: functional
# A549 [21] = test: Potentiation of etoposide-induced cell cycle arrest in human A549 cells assessed as accumulation at S phase at 2.5 uM in presence of etoposide after 48 hrs by flow cytometric analysis (Rvb =12.3%); format: functional
# A549 [22] = test: Potentiation of etoposide-induced cell cycle arrest in human A549 cells assessed as accumulation at sub G1 phase at 10 uM in presence of etoposide after 48 hrs by flow cytometric analysis (Rvb =33 %); format: functional
# A549 [23] = test: Induction of cell cycle arrest in human A549 cells assessed as accumulation at G2/M phase at 5 uM after 48 hrs by flow cytometric analysis (reference value: 22.1 to 25.4 %); format: functional
# A549 [24] = test: Potentiation of cisplatin-induced cell cycle arrest in human A549 cells assessed as accumulation at sub G1 phase at 2.5 uM in presence of cisplatin after 48 hrs by flow cytometric analysis (reference value: 17%); format: functional
# [25] = Upregulation of p27KIP1 protein expression in human A549 cells assessed as fold change in expression at 10 uM after 6 hrs by Western blot analysis (reference value: 0.83); format: functional
# CYP3A4 = CYP3A4 (Homo sapiens, UniProt P08684); test: Inhibition of human CYP3A4 assessed as residual activity at 10 uM measured after 15 mins relative to control; format: ADME; settings: read-out: Activity
# CYP3A4, sequence (P08684 whole entry): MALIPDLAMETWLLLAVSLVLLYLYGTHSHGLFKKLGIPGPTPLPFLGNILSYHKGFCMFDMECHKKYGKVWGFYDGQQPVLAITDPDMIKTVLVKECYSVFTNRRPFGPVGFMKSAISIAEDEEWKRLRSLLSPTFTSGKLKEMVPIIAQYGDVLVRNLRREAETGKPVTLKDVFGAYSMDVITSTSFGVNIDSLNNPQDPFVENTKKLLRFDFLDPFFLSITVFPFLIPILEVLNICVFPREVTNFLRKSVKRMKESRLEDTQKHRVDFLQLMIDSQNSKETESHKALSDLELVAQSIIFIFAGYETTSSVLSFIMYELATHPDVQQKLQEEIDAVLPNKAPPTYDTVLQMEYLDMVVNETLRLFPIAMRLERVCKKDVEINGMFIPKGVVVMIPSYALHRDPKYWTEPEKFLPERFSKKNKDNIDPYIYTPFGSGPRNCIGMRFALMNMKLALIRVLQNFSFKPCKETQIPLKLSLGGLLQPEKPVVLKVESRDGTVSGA
# A549 [26] = test: Decrease in cell cycle associated protein expression in human A549 cells assessed as fold change in CDK6 expression at 10 uM after 36 hrs by Western blot analysis (reference value: 0.7); format: functional
# A549 [27] = test: Decrease in cell cycle associated protein expression in human A549 cells assessed as fold change in cyclin D3 expression at 2.5 uM after 48 hrs by Western blot analysis (reference value: 0.73); format: functional
# [28] = Increase in recruitment of […] p27KIP1 to CDK4 in human A549 cells assessed as fold change at 10 uM incubated for 12 hrs by immunoprecipitation/immunoblot analysis (reference value: 0.16); format: functional
# A549 [29] = test: Induction of cell cycle arrest in human A549 cells assessed as accumulation at sub G1 phase at 5 uM after 48 hrs by flow cytometric analysis (reference value: 1.9 to 4.9%); format: functional
# A549 [30] = test: Decrease in cell cycle associated protein expression in human A549 cells assessed as fold change in CDK2 expression at 10 uM after 12 hrs by Western blot analysis (reference value: 0.79); format: functional
# A549 [31] = test: Decrease in cell cycle associated protein expression in human A549 cells assessed as reduction in cyclin E expression at 10 uM by Western blot analysis; format: functional, cell-based; settings: time 6-48 hrs, TDE = time-dependent effect
# A549 [32] = test: Decrease in cell cycle associated protein expression in human A549 cells assessed as reduction in cyclin E expression after 48 hrs by Western blot analysis; format: functional, cell-based; settings: dose 2.5-10 µM
smiles,measurement,setting,value
CN(C)C(=O)NCCCN(C)C1=Nc2ccccc2C(CC(=O)NCc2ccc(F)cc2)N1c1ccc(C2CCCCC2)cc1 (stereo not given),fold change (FC),A549 [1],0.47
same,fold change (FC),A549 [2],0.47
same,fold change (FC),A549 [3],0.61
same,fold change (FC),A549 [4],0.43
same,Activity,A549 [5],43.4%
same,Activity,A549 [6],Dose-dependent effect
same,fold change (FC),A549 [7],0.44
same,"fraction unbound at 4 h, 10 µM",[8],< 0.01
same,"remaining at 0.5 h, 1 µM",[9],71.2%
same,"activity at 0.25 h, 10 µM",CYP2D6,78.3%
same,fold change (FC),A549 [10],0.18
same,Activity,A549 [11],6.1%
same,fold change (FC),A549 [12],0.91
same,Activity,A549 [13],32.4%
same,"remaining at 0.5 h, 1 µM",[14],64.3%
same,Activity,A549 [15],10.9%
same,Activity,A549 [16],43%
same,fold change (FC),A549 [17],0.7
same,"activity at 0.25 h, 10 µM",CYP2C19,55.8%
same,Activity,A549 [18],Dose-dependent effect
same,fold change (FC),A549 [19],0.55
same,Activity,A549 [20],19.2%
same,Activity,A549 [21],10.7%
same,Activity,A549 [22],83.1%
same,Activity,A549 [23],14.3%
same,Activity,A549 [24],18.6%
same,fold change (FC),[25],0.3
same,"activity at 0.25 h, 10 µM",CYP3A4,36.9%
same,fold change (FC),A549 [26],0.38
same,fold change (FC),A549 [27],0.74
same,fold change (FC),[28],0.62
same,Activity,A549 [29],1%
same,fold change (FC),A549 [30],0.62
same,Activity,A549 [31],Tde
same,Activity,A549 [32],Dose-dependent effect
